Cc1nc2cc(N)ccc2s1
solubility (mole fraction)
Details	288.5 K	293.5 K	298.5 K	303.5 K	308.5 K	313.5 K	318.5 K	323.5 K	328.5 K
in ethanol	0.00125	0.00129	0.00156	0.00164	0.00174	0.00194	0.0022	0.00253	0.00284
in water	0.000191	0.000269	0.000311	0.000491	0.000534	0.000745	0.000872	0.000937	0.00113

— BigSolDB 2.1
